Results published in patent US10413538B2, “Administration of karenitecin for the treatment of platinum and/or taxane chemotherapy-resistant or -refractory advanced ovarian cancer” (priority 2013, dated 2019).
Entries after “also recorded” stand apart in the source; their conditions may differ. Where two headings read alike, the source gives them in different places.

Key:
[1] = tested on: stage III/IV advanced epithelial ovarian cancer resistant or refractory to platinum- and taxane-based chemotherapy; test: Phase III clinical study of Karenitecin versus Topotecan: efficacy (PFS, OS); assay type: in vivo, human
Description: The Primary Endpoint of the disclosed Phase III clinical study was Progression Free Survival (“PFS”); which was defined as the time period from the date of randomization to the date of first radiographically documented Progressive Disease (“PD”) or date of death due to any cause, taking either event date that occurred first. The date of PD was determined by radiographical objective disease (RECIST) measurement method. The Secondary Endpoints of the disclosed Phase III clinical study included: (i) Overall Survival (hereinafter “OS”), defined as the time from the date of randomization to the date of death due to any cause; (ii) Incidence of anemia, defined as the proportion of patients who experience ≥grade 3 anemia based on National Cancer Institute Common Terminology Criteria for Adverse Events (NCI-CTCAE) criteria at any time post-baseline after receiving study treatment; (iii) Incidence of neutropenia (including febrile neutropenia), defined as the proportion of patients who experience ≥grade 3 neutropenia based on NCI-CTCAE criteria at any time post-baseline after receiving study treatment; and (iv) Incidence of thrombocytopenia, defined as the proportion of patients who experience ≥grade 3 thrombocytopenia based on NCI-CTCAE criteria at any time post-baseline after receiving study treatment.
All patients admitted to this Phase III clinical trial were documented to be platinum- and/or taxane-resistant or refractory and have incurable disease. […] It is important to note that, currently, there is no FDA-approved chemotherapeutic drug for this specific aforementioned indication.
Approximately 80 study centers participated in this Phase III clinical study. The primary endpoint was Progression Free Survival (PFS), defined as the time period from the date of randomization to the date of first radiographically documented progressive disease or disease progression (“PD”) or date of death due to any cause, taking the event date that occurs first.
The primary endpoint was Progression Free Survival (PFS); defined as the time period from the date of randomization to the date of first radiographically documented progressive disease (PD) or date of death due to any cause, taking the event date that occurs first. The date of PD was determined by radiographically objective disease (RECIST) measurement. Secondary Endpoints: • Overall Survival (OS), defined as the time from the date of randomization to the date of death due to any cause. • Incidence of anemia, defined as the proportion of patients who experience ≥grade 3 anemia based on National Cancer Institute Common Terminology Criteria for Adverse Events (NCI-CTCAE) criteria at any time post-baseline after receiving study treatment. • Incidence of neutropenia (including febrile neutropenia), defined as the proportion of patients who experience ≥grade 3 neutropenia based on NCI-CTCAE criteria at any time post-baseline after receiving study treatment. • Incidence of thrombocytopenia, defined as the proportion of patients who experience ≥grade 3 thrombocytopenia based on NCI-CTCAE criteria at any time post-baseline after receiving study treatment.
Patients underwent procedures throughout four (4) defined periods in this study, which are briefly described below. Various clinical, laboratory, and disease evaluations were required for each of these for each periods.
Period I (Screening and Randomization): Patient eligibility was determined by compliance with protocol-specified inclusion and exclusion criteria. Patients who signed the informed consent, and successfully complete the screening process, including documentation of disease status by radiographic measures, were randomized to receive study treatment.
Period III (End of Treatment): Within ±3 days of date of treatment discontinuation, end-of treatment procedures will be conducted during Period III.

[2] = Phase I clinical studies of intravenous Karenitecin (safety, dose-limiting toxicity); assay type: in vivo, human
Description: Results from three Phase I studies indicate that Karenitecin can be safely administered to patients at the dose level of 1.0 mg/m^2/day I.V. over a one hour period of time for 5 consecutive days in a 3-week treatment cycle. […] Any gastrointestinal toxicity is generally ≤grade 2 and is not dose-limiting.
Intravenous administration of Karenitecin has been evaluated in three Phase I clinical studies in patients with the following cancer types: (i) advanced solid tumors (adult patients) (see, e.g., Schilsky, R. L., Hausheer, F. H., et al., Phase I trial of Karenitecin administered intravenously daily for five consecutive days in patients with advanced solid tumors using accelerated dose titration [abstract]. ASCO Abstract 758 (2000)); (ii) refractory or recurrent solid tumors (pediatric patients); and (iii) recurrent malignant glioma (adult patients). […]

[3] = tested on: panel of over twenty (20) human cancer cell lines; test: In vitro studies on a panel of human cancer cell lines; assay type: cell-based
Topoisomerase I = biological target: T1, Topoisomerase I (Homo sapiens, UniProt P11387); test: Topoisomerase I inhibition; assay type: biochemical
T1 sequence (P11387 1-765): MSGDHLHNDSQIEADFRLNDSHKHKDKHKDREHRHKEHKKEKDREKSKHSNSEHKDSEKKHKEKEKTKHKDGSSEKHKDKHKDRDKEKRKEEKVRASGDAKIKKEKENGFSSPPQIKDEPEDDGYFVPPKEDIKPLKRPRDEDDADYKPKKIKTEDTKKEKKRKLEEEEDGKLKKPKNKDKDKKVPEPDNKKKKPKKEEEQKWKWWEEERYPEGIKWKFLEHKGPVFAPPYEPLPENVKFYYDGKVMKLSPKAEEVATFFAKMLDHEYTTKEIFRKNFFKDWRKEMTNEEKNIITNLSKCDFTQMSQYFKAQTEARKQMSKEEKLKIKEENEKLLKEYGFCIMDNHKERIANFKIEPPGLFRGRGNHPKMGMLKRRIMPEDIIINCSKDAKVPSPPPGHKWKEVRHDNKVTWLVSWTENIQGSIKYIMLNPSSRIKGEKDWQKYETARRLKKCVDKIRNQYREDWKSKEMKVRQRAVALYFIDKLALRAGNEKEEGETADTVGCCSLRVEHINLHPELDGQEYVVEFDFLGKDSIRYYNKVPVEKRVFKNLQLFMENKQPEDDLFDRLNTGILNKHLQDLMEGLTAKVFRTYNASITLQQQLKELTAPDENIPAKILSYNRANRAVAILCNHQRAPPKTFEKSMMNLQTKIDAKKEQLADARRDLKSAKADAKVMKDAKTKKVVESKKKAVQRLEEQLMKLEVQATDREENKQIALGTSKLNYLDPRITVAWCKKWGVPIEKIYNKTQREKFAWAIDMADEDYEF

[4] = Lactone stability and lactone half-life in humans/plasma; assay type: in vivo, human
[5] = Glucuronidation / metabolism; assay type: in vitro ADME
advanced ovarian cancer = test: Phase II study in advanced ovarian cancer patients who had failed prior treatments; assay type: in vivo, human
Description: Intravenous administration of Karenitecin has been evaluated in three Phase I clinical studies in patients with the following cancer types: (i) advanced solid tumors (adult patients) (see, e.g., Schilsky, R. L., Hausheer, F. H., et al., Phase I trial of Karenitecin administered intravenously daily for five consecutive days in patients with advanced solid tumors using accelerated dose titration [abstract]. ASCO Abstract 758 (2000)); (ii) refractory or recurrent solid tumors (pediatric patients); and (iii) recurrent malignant glioma (adult patients). Intravenous administration of Karenitecin has also been evaluated in four Phase 2 clinical studies in adult patients with the following cancer types: (i) primary malignant glioma; (ii) treatment of persistent or recurrent epithelial ovarian or primary peritoneal carcinoma in heavily pre-treated patients; (iii) malignant melanoma (see, e.g., Hausheer, F. H., et al., Phase II trial of Karenitecin (BNP1350) in malignant melanoma: clinical and translational study [abstract]. ASCO Abstract 7554 (2004); and (iv) relapsed or refractory non-small cell lung cancer (see, e.g., Miller, A. A., et al., MR for the Cancer and Leukemia Group B. Phase II trial of Karenitecin in patients with relapsed or refractory advanced non-small cell lung cancer (CALGB 30004) Lung Cancer 48:399-407 (2005)).

[6] = human, in vivo
Description: The primary endpoint was Progression Free Survival (PFS); defined as the time period from the date of randomization to the date of first radiographically documented progressive disease (PD) or date of death due to any cause, taking the event date that occurs first. The date of PD was determined by radiographically objective disease (RECIST) measurement. […]
Simultaneous statistical analyses were performed on the clinical trial data from the time points when 254 and 338 Progression Free Survival (PFS) events occurred during the aforementioned Karenitecin Phase III Trial and the following results were observed. […] The PFS benefit for Karenitecin in comparison to Topotecan was determined using an Independent Review Committee (IRC).

[7] = dog, in vivo, po
[8] = in vivo, iv
[9] = tested on: MDR/MRP, Breast Cancer Resistance Protein (BCRP)
[10] = tested on: MDR/MRP, Breast Cancer Resistance Protein (BCRP); settings: cited from earlier work
[11] = Preclinical toxicology, oral single daily doses for five consecutive days; settings: beagle dogs
MDR-expressing sublines = settings: P-glycoprotein-associated MDR phenotype; cited from earlier work
[12] = tested on: resistant subline of cells containing less than 4% of the topoisomerase I activity; settings: subline with <4% topoisomerase I activity; cited from earlier work
[13] = human, in vivo; cited from earlier work

CC[C@@]1(O)C(=O)OCc2c1cc1n(c2=O)Cc2c-1nc1ccccc1c2CC[Si](C)(C)C [Karenitecin, (4S)-4-ethyl-4-hydroxy-11-[2-(trimethylsilyl)ethyl]-1H-pyrano[3′:4′:6,7]indolizino[1,2-b]quinoline-3,14(4H,12H)-dione]
overall survival hazard ratio, Karenitecin vs Topotecan ([1]; Adenocarcinoma (grade ≥2) not otherwise specified, P-value 0.7893): 0.898 | PFS HR, Karenitecin vs Topotecan ([1]; Adenocarcinoma (grade ≥2) not otherwise specified, P-value=0.3700): 0.684 | PFS HR, Karenitecin vs Topotecan ([1]; Best response SD after 6 cycles in a first-line setting, P-value=0.9908): 0.992 | PFS HR, Karenitecin vs Topotecan ([1]; ECOG Performance Status 0, P-value=0.0249): 0.662 | PFS HR, Karenitecin vs Topotecan ([1]; ECOG Performance Status 2, P-value=0.7481): 0.896 | PFS HR, Karenitecin vs Topotecan ([1]; FIGO Stage 111B, P-value=0.6225): 0.722 | overall survival hazard ratio, Karenitecin vs Topotecan ([1]; FIGO Stage IV, P-value 0.4516): 0.892 | PFS HR, Karenitecin vs Topotecan ([1]; FIGO Stage IV, all events, P-value=0.0556): 0.741 | PFS HR, Karenitecin vs Topotecan ([1]; FIGO Stage IV, first 254 PFS events, P-value=0.0260): 0.669 | overall survival hazard ratio, Karenitecin vs Topotecan ([1]; Histological Stage: G1-well differentiated, P-value 0.974): 0.9612 | PFS HR, Karenitecin vs Topotecan ([1]; Histological Stage: G1-well differentiated, P-value=0.8561): 0.904 | PFS HR, Karenitecin vs Topotecan ([1]; Histological Stage: G2-moderately differentiated, P-value=0.2982): 0.835 | overall survival hazard ratio, Karenitecin vs Topotecan ([1]; Histopathology Class: Undifferentiated carcinoma, P-value 0.701): 0.6426 | median PFS advantage in favor of Karenitecin ([1]; Histopathology class: Mucinous adenocarcinoma subtype): 2 month | overall survival hazard ratio, Karenitecin vs Topotecan ([1]; Histopathology class: Mucinous adenocarcinoma, P-value 0.7321): 0.841 | PFS HR, Karenitecin vs Topotecan ([1]; Histopathology class: serous adenocarcinoma, P-value=0.2829): 0.873 | PFS HR, Karenitecin vs Topotecan ([1]; Ovary as primary site of disease, P-value=0.2606): 0.885 | median progression-free survival (PFS) advantage in favor of Karenitecin (as compared with Topotecan) ([1]; overall trial population, IRC): greater than 6 week | PFS Hazard Ratio (HR), Karenitecin vs Topotecan ([1]; overall trial population, P-value=0.261): 0.885 | PFS HR, Karenitecin vs Topotecan ([1]; resistant subject sub-population, P-value=0.144): 0.822 | PFS HR, Karenitecin vs Topotecan ([1]; subpopulation refractory or resistant and/or mucinous, first 254 PFS events, P-value=0.0849): 0.770 | principal and dose-limiting toxicity ([2]; Phase I, 1.0 mg/m^2/day I.V. over one hour, 5 consecutive days, 3-week cycle): non-cumulative, reversible myelosuppression; also recorded: reversible and non-cumulative neutropenia and thrombocytopenia | serious hypersensitivity reactions reported by patients ([2]; patients receiving Karenitecin to date): no serious hypersensitivity reactions | concentrations for inhibiting the growth of human and animal tumor cells in vitro [3]: nanomolar or sub-nanomolar concentrations | antitumor potency compared with Topotecan or SN-38 ([3]; over twenty human cancer cell lines): significantly more potent antitumor agent than either Topotecan or SN-38 | Topoisomerase I inhibition (Topoisomerase I): potent inhibitor of Topoisomerase I | half-life in active lactone form in plasma compared with other commercially-available camptothecins [4]: longer half-life in its active lactone form in plasma | A-ring or B-ring glucuronidation [5]: does not undergo A-ring or B-ring glucuronidation | Time to Progression (TTP) compared with historical results reported with Topotecan (advanced ovarian cancer): prolonged Time to Progression (TTP) | Grade 3 or 4 anemia events reduced in comparison to the Topotecan arm ([6]; female, 5 days): 27.3% | Grade 3 or 4 thrombocytopenia events reduced in comparison to the Topotecan arm ([6]; female, 5 days): 37.4% | grade 4 neutropenia reduced in comparison to the Topotecan arm ([6]; female, 5 days): 38.2% | safety concerns as monitored by the independent Data and Safety Monitoring Board (DSMB) [6]: no safety concerns related to Karenitecin were noted | toxicities observed [7]: anorexia; weight loss; gastrointestinal toxicity (manifested as diarrhea with hemorrhage); occasional vomiting; and myelosuppression | toxicities observed [8]: reversible myelosuppression (predominantly neutropenia), diarrhea, emesis and mucositis (canine) | susceptibility to MDR/MRP drug resistance [9]: lacks susceptibility to MDR/MRP drug resistance | sensitivity to tumor-mediated drug resistance mechanisms including BCRP [10]: insensitive to all commonly-known tumor-mediated drug resistance mechanisms | oral MTD relative to intravenous (I.V.) MTD [11]: approximately 2 times

COc1cccc2c1C(=O)c1c(O)c3c(c(O)c1C2=O)C[C@@](O)(C(=O)CO)C[C@@H]3O[C@H]1C[C@H](N)[C@H](O)[C@H](C)O1 [doxorubicin]
resistance of MDR-expressing sublines relative to parental wild-type cells (MDR-expressing sublines): 200 fold

COc1cc([C@@H]2c3cc4c(cc3[C@@H](O[C@@H]3O[C@@H]5CO[C@@H](C)O[C@H]5[C@H](O)[C@H]3O)[C@H]3COC(=O)[C@H]23)OCO4)cc(OC)c1O [etoposide]
resistance of MDR-expressing sublines relative to parental wild-type cells (MDR-expressing sublines): 200 fold

CC[C@@]1(O)C(=O)OCc2c1cc1n(c2=O)Cc2cc3ccccc3nc2-1 [camptothecin]
decrease in sensitivity of resistant subline versus wild-type parental cells [12]: 1000 fold

Nc1ccn([C@@H]2O[C@H](CO)[C@@H](O)C2(F)F)c(=O)n1 [Gemcitabine]
patients with neutropenia [13]: up to 90%
